Measured values published in ChEMBL document CHEMBL3046756, “Synthesis, anti-inflammatory, and structure antioxidant activity relationship of novel 4-quinazoline” (Med Chem Res, 2013).
Calls of active or inactive are those of the source. The rule behind the calls is not given here.

Legend:
[1] = test system: Rattus norvegicus; assay: Antipyretic activity in Wistar Rattus norvegicus (rat) assessed as decrease in Brewer's yeast solution-induced hyperthermia at 50 mg/kg, po measured after 3 hr (reference value: 36.8 +/- 1.9 degC); format: functional
[2] = test system: Rattus norvegicus; assay: Antipyretic activity in Wistar Rattus norvegicus (rat) assessed as decrease in Brewer's yeast solution-induced hyperthermia at 150 mg/kg, po measured after 2 hr (reference value: 37 +/- 1.7 degC); format: functional
[3] = test system: Rattus norvegicus; assay: Antipyretic activity in Wistar Rattus norvegicus (rat) assessed as decrease in Brewer's yeast solution-induced hyperthermia at 100 mg/kg, po measured after 2 hr (reference value: 37 +/- 1.7 degC); format: functional
[4] = test system: Mus musculus; assay: Toxicity in albino Mus musculus (mouse) assessed as change in eye color at 150 to 900 mg/kg, ip measured within 24 hr; format: organism-based; parameters: dose 150-900 mg/kg, route intraperitoneal; settings: in vivo
[5] = test system: Mus musculus; assay: Toxicity in albino Mus musculus (mouse) assessed as tremor in hind limbs at 150 to 900 mg/kg, ip measured within 24 hr; format: organism-based, Hindlimb; parameters: dose 150-900 mg/kg, route intraperitoneal; settings: in vivo
[6] = test system: Rattus norvegicus; assay: Anti-inflammatory activity in Wistar Rattus norvegicus (rat) assessed as inhibition of carrageenan-induced paw edema at 100 mg/kg, po administered 30 min prior to carrageenan challenge measured at 90 min relative to untreated control; format: functional
[7] = test system: Rattus norvegicus; assay: Anti-inflammatory activity in Wistar Rattus norvegicus (rat) assessed as inhibition of carrageenan-induced paw edema at 50 mg/kg, po administered 30 min prior to carrageenan challenge measured at 90 min relative to untreated control; format: functional
[8] = test system: Rattus norvegicus; assay: Anti-inflammatory activity in Wistar Rattus norvegicus (rat) assessed as inhibition of carrageenan-induced paw edema at 150 mg/kg, po administered 30 min prior to carrageenan challenge measured at 60 min relative to untreated control; format: functional
[9] = test system: Rattus norvegicus; assay: Anti-inflammatory activity in Wistar Rattus norvegicus (rat) assessed as inhibition of carrageenan-induced paw edema at 100 mg/kg, po administered 30 min prior to carrageenan challenge measured at 60 min relative to untreated control; format: functional
[10] = test system: Rattus norvegicus; assay: Anti-inflammatory activity in Wistar Rattus norvegicus (rat) assessed as inhibition of carrageenan-induced paw edema at 150 mg/kg, po administered 30 min prior to carrageenan challenge measured at 30 min post carrageenan challenge relative to untreated control; format: functional
[11] = test system: Rattus norvegicus; assay: Anti-inflammatory activity in Wistar Rattus norvegicus (rat) assessed as inhibition of carrageenan-induced paw edema at 50 mg/kg, po administered 30 min prior to carrageenan challenge measured at 30 min post carrageenan challenge relative to untreated control; format: functional
[12] = test system: Rattus norvegicus; assay: Antipyretic activity in Wistar Rattus norvegicus (rat) assessed as decrease in Brewer's yeast solution-induced hyperthermia at 50 mg/kg, po measured after 2 hr (reference value: 37 +/- 1.7 degC); format: functional
[13] = test system: Rattus norvegicus; assay: Antipyretic activity in Wistar Rattus norvegicus (rat) assessed as decrease in Brewer's yeast solution-induced hyperthermia at 100 mg/kg, po measured after 1 hr (reference value: 37 +/- 3.55 degC); format: functional
[14] = test system: Rattus norvegicus; assay: Anti-inflammatory activity in Wistar Rattus norvegicus (rat) assessed as inhibition of carrageenan-induced paw edema at 150 mg/kg, po administered 30 min prior to carrageenan challenge measured at 180 min relative to untreated control; format: functional
[15] = test system: Rattus norvegicus; assay: Anti-inflammatory activity in Wistar Rattus norvegicus (rat) assessed as inhibition of carrageenan-induced paw edema at 100 mg/kg, po administered 30 min prior to carrageenan challenge measured at 180 min relative to untreated control; format: functional
[16] = test system: Rattus norvegicus; assay: Anti-inflammatory activity in Wistar Rattus norvegicus (rat) assessed as inhibition of carrageenan-induced paw edema at 50 mg/kg, po administered 30 min prior to carrageenan challenge measured at 120 min relative to untreated control; format: functional
[17] = Antioxidant activity assessed as reduction of Fe3+ to Fe2+ at 20 to 120 ug/ml after 30 min by spectrophotometric analysis; format: functional
[18] = test system: Rattus norvegicus; assay: Effect on GST level in Wistar Rattus norvegicus (rat) liver measured CDNB conjugated per min per mg of protein at 150 mg/kg, po after 10 days (reference value: 0.86 +/- 0.08 mmol); format: functional
[19] = test system: Rattus norvegicus; assay: Effect on GST level in Wistar Rattus norvegicus (rat) liver measured CDNB conjugated per min per mg of protein at 100 mg/kg, po after 10 days (reference value: 0.86 +/- 0.08 mmol); format: functional
[20] = test system: Rattus norvegicus; assay: Effect on LDH level in Wistar Rattus norvegicus (rat) serum at 50 mg/kg, po qd after 10 days (reference value: 249.89 +/- 13.26 U/I); format: functional
[21] = test system: Rattus norvegicus; assay: Effect on SGPT level in Wistar Rattus norvegicus (rat) at 100 mg/kg, po qd after 10 days (reference value: 38.77 +/- 4.25 U/I); format: functional
[22] = test system: Rattus norvegicus; assay: Effect on SGOT level in Wistar Rattus norvegicus (rat) at 150 mg/kg, po qd after 10 days (reference value: 145.50 +/- 13.86 U/I); format: functional
[23] = test system: Rattus norvegicus; assay: Effect on SGOT level in Wistar Rattus norvegicus (rat) at 50 mg/kg, po qd after 10 days (reference value: 145.50 +/- 13.86 U/I); format: functional
[24] = test system: Mus musculus; assay: Toxicity in albino Mus musculus (mouse) assessed as change in temperature at extremities at 150 to 900 mg/kg, ip measured within 24 hr; format: organism-based; parameters: dose 150-900 mg/kg, route intraperitoneal; settings: in vivo
[25] = test system: Rattus norvegicus; assay: Effect on glutathione reductase level in Wistar Rattus norvegicus (rat) liver measured NADPH oxidized per min per mg of protein at 50 mg/kg, po after 10 days (reference value: 4.19 +/ 0.42 nmol); format: functional
[26] = test system: Rattus norvegicus; assay: Effect on GSH level in Wistar Rattus norvegicus (rat) liver measured per mg of protein at 100 mg/kg, po after 10 days (reference value: 1.84 +/- 0.092 mg); format: functional
[27] = test system: Rattus norvegicus; assay: Effect on GSH level in Wistar Rattus norvegicus (rat) liver measured per mg of protein at 50 mg/kg, po after 10 days (reference value: 1.84 +/- 0.092 mg); format: functional
[28] = test system: Rattus norvegicus; assay: Effect on LDH level in Wistar Rattus norvegicus (rat) serum at 100 mg/kg, po qd after 10 days (reference value: 249.89 +/- 13.26 U/I); format: functional
[29] = test system: Mus musculus; assay: Toxicity in albino Mus musculus (mouse) assessed as change in eye color at 650 to 1800 mg/kg, ip measured within 24 hr; format: organism-based; parameters: dose 650-1800 mg/kg, route intraperitoneal; settings: in vivo
[30] = test system: Mus musculus; assay: Toxicity in albino Mus musculus (mouse) assessed as tremor in hind limbs at 650 to 1800 mg/kg, ip measured within 24 hr; format: organism-based, Hindlimb; parameters: dose 650-1800 mg/kg, route intraperitoneal; settings: in vivo
[31] = test system: Mus musculus; assay: Toxicity in albino Mus musculus (mouse) assessed as rapid respiration at 650 to 1800 mg/kg, ip measured within 1 to 2 hr; format: organism-based; parameters: route intraperitoneal; settings: in vivo
[32] = Antioxidant activity assessed as Fe2+ chelating activity at 1.25 mg/ml after 90 min by spectrophotometric analysis; format: functional
[33] = test system: Mus musculus; assay: Toxicity in albino Mus musculus (mouse) assessed as change in temperature at extremities at 650 to 1800 mg/kg, ip measured within 24 hr; format: organism-based; parameters: dose 650-1800 mg/kg, route intraperitoneal; settings: in vivo

Row | SMILES | T [1] [°C] | T [2] [°C] | T [3] [°C] | inhibition in vivo at 100 mg/kg [6] [%] | inhibition in vivo at 50 mg/kg [7] [%] | inhibition in vivo at 150 mg/kg [8] [%] | inhibition in vivo at 100 mg/kg [9] [%] | inhibition in vivo at 150 mg/kg [10] [%] | inhibition in vivo at 50 mg/kg [11] [%] | T [12] [°C] | T [13] [°C] | inhibition in vivo at 150 mg/kg [14] [%] | inhibition in vivo at 100 mg/kg [15] [%] | inhibition in vivo at 50 mg/kg [16] [%] | Activity [17] | Activity [18] [mmol] | Activity [19] [mmol] | Activity [20] [U/L] | Activity [21] [U/L] | Activity [22] [U/L] | further results
1 | O=c1c2ccccc2nc2n1NC(c1ccc(O)c(O)c1)C2 (stereo not drawn) | 36.1 | 37 | 36 | 45.9 | 39.5 | 34.2 | 38 | 8.48 | 1.28 | 36.5 | 37.8 | 54.6 | 48.3 | 53.7 | Active | 1.34 | 1.15 | 246.29 | 36.15 | 134.55 | Activity [4]: Toxic; Activity [5]: Toxic; Activity [23]: 139.53 U/L; Activity [24]: Toxic; Activity [25]: 4.33 nmol; Activity [26]: 1.85 mg; Activity [27]: 1.8 mg; Activity [28]: 243.46 U/L
2 | COC(=O)c1ccccc1NC(=O)/C=C/c1ccc(O)c(O)c1 | 36.8 | 36.5 | 36.7 | 49.3 | 53.1 | 52.7 | 45.4 | 37.9 | 24.7 | 37 | 37.2 | 78.9 | 70.7 | 63.8 | Active | 1.97 | 1.54 | 240.38 | 43.21 | 129.32 | Activity [29]: Toxic; Activity [30]: Toxic; Activity [31]: Toxic; Activity [32]: 30%; Activity [23]: 135.62 U/L; Activity [33]: Toxic; Activity [25]: 4.85 nmol; Activity [26]: 2.39 mg; Activity [27]: 1.94 mg; Activity [28]: 239.19 U/L
